Measured values as given in patent publication US9593146B2, “CD44v6-derived peptides for treating metastasizing cancer” (AMCURE GMBH, priority 2012, dated 2017).

Key:
BSp73ASs6 cells [1] = assay: Apoptosis in established lung metastases (cleaved Caspase-3, cleaved Caspase-8), BSp73ASs6 rat model; assay type: in vivo; settings: injection every second day
Protocol: 7 μm thick paraffin sections were deparaffinized and rehydrated. For P-Met staining antigen unmasking was achieved by boiling the slides in 1 mM EDTA pH 8.0 followed by incubation for 15 minutes at a sub-boiling temperature, for CD31 staining the sections were treated with Proteinase K (8 μg/ml) for 10 min at 37° C. For immunofluorescence staining of P-Met, unspecific binding was blocked with 5% goat serum (DAKO, Glostrup, Denmark) (diluted in 1×PBS/0.3% Triton X-100) for 60 minutes. In the case of immunohistochemistry, endogenous peroxidases were at first blocked with 3% H2O2 in PBS followed by incubation with biotin blocking system (Dako, Glostrup, Denmark) and then unspecific binding was inhibited by incubation with 5% FCS in PBS. The sections were incubated with the P-Met antibody (D26, dilution 1:50 in 1×PBS/1% BSA/0.3% Triton X-100), Met antibody (C-28, dilution 1:50), GFP antibody (sc-101525, dilution 1:50) or CD31 antibody (5 μg/ml) over night or VFF18 (5 μg/ml) o/n at 4° C. After washing in PBS the sections were incubated with Alexa Fluor R 546 goat anti-rabbit (in case of immunofluorescence P-Met and Met staining, dilution 1:500) or a biotinylated secondary antibody (for immunohistochemical stainings rabbit anti-rat antibody for VFF18 and CD31, goat anti-rabbit for P-Met, cleaved Caspase-3 and cleaved Caspase-8 and rabbit anti-mouse for GFP, dilution 1:500) for 45 minutes. For DAB (3,3′-diaminobenzidine) staining the sections were treated with a streptavidin-peroxidase conjugate (Dako, Glostrup, Denmark) and developed with DAB substrate system (3,3′-diaminobenzidine; Biozol, Eching, Germany). For immunofluorescence DAPI was used for nuclear staining.
One hypothesis for the disappearance of metastases is that the peptides induce apoptosis of CD44v6-expressing metastatic cells in the secondary organs. In order to test this hypothesis, the experiment described above using the BSp73ASs6 cells was repeated. The cells were injected subcutaneously in syngeneic rats and the tumor was allowed to develop for three weeks. After that time the animals were separated in two groups of 10 animals that were injected either with the specific rat CD44v6 peptide or with the control peptide (mouse) every second day. One day following each injection of the peptide, the lungs of one animal were removed and apoptosis was measured using an antibody that detects the cleaved form of Caspase 3. […] Twelve days after injection of the CD44v6 peptide, less apoptosis was observed. […] From these experiments, it is concluded that the CD44v6 peptide induces apoptosis of metastatic cells.

BSp73ASs6 cells [2] = assay: Rat syngeneic model, subcutaneous BSp73ASs6 tumor, metastasis formation; assay type: in vivo; settings: for metastasis (axillary lymph nodes, lungs): 200 μg per injection, intra-tumoral or intravenously three times a week, start after one week of tumor growth; for outgrowth of primary tumors / metastasis and micro-metastasis in lung sections (PAS and H&E staining): same treatment; for outgrowth of primary tumors: 28 days; for metastasis and micro-metastasis in lung sections (PAS and H&E staining): histological analysis
Protocol: In the case of the rat syngeneic model, 1×10^6 pancreatic cells (BSp73AS and its transfectants) were subcutaneously injected into the right posterior flank of the animals. Tumors developed for four weeks. During this time period animals injected with BSp73ASs6 cells expressing Met-shRNA or control-shRNA received doxycycline in the drinking water. At the end of the experiment, primary tumors were isolated. Lungs and axillary lymph nodes were analyzed. The tissues were incubated for 24 h in a zinc-fixative (0.5 g calcium acetate, 5.0 g zinc acetate, 5.0 g zinc chloride, in 1 L 0.1 M Tris pH 7.4) and embedded in paraffin for further analysis. In case of peptide or antibody treatment tumors developed for one week before the first treatment. Where indicated, animals received 200 μg of peptide or antibody per injection three times per week for four weeks. Tumor growth was monitored weekly using a caliper. Animals were killed at day 28 or 30 after start of the treatment.
For histo-morphological analysis paraffin-embedded sections of lungs were stained with hematoxylin and eosin and periodic acid-Schiff (H&E or PAS). Serial sections of the whole tissue blocks were examined by analyzing slices every 20 μm; in each slice, the presence and the extension of the metastatic deposit was assessed, according to the procedure routinely used by pathologists to evaluate the presence of micro-metastases.

Met and ERK [3] = assay: HGF induced activation of Met and ERK in L3.6pl cells (Western blot); assay type: cell-based, human; settings: L3.6pl cells, peptide prior to induction with 10 ng/ml HGF
Protocol: (§1) Serum-starved cells (24 hours) were induced with the growth factor HGF (10 ng/mL) at 37° C. for 5 minutes. Where indicated, the cells were treated with peptides (100 ng/ml) prior to induction at 37° C. for 10 minutes (100 ng/mL CD44v6 peptide or control peptide). Following the induction with HGF, cells were washed with ice-cold phosphate-buffered saline (PBS). To detect activated Met and Erk, cells were lysed in sodium dodecyl sulfate (SDS)-sample buffer containing 100 mM dithiothreitol (DTT), boiled and subjected to western blot analysis using antibodies against phospho-Met and ERK. The loading controls were performed on the same blot after stripping (62.5 mM Tris, pH 6.8, 2% SDS, 0.8% DTT) by probing with the Met respectively ERK antibody. Blots were stained using the enhanced chemiluminescence system (Thermo Fisher Scientific, Schwerte, Germany). Bands in western blot analysis were quantified with the program Image J (National Institutes of Health).

L3.6pl cells = assay: Human orthotopic model of pancreatic cancer, L3.6pl cells in nude mice; assay type: in vivo
Protocol: In the case of the human orthotopic model, L3.6pl pancreatic carcinoma cells (passage 24-26) were suspended in Hank's balanced salt solution (Invitrogen, Karlsruhe, Germany) after trypsinization. The cells were injected orthotopically in the pancreas of male nude mice as described (Bruns C J et al. (1999) Neoplasia 1(1):50-62). Two groups of 15 mice each were injected i.p. 7 days later with either the human v6 peptide respectively rat control peptide (20 μg). For all experiments described and depicted herein either the rat 14mer control peptide or the human 14mer peptide were used. All experiments were then repeated with the rat 5mer control peptide or the human 5mer peptide (N-R-W-H-E, SEQ ID NO: 2). […] The injection was repeated three times per week for 21 days. Two days after the last treatment the animals were killed. […]
A comparison of different CD44v6 peptide derivatives was performed in animals bearing a orthotopic L3.6pl tumor. 10 groups of 5 animals each received a dose of 20 μg peptide per injection three times per week for 3 weeks with the compounds listed in Table 4. Three weeks after starting the treatment the animals were sacrificed and analyzed for macroscopic metastases and tumor volume.

4T1 cells = assay: Syngeneic orthotopic 4T1 mammary carcinoma model in BALB/c mice; assay type: in vivo; settings: 20 μg i.p. 3 times per week for two weeks
Protocol: FIG. 26: Treatment with the v6 14mer reduces growth of the primary tumor and macroscopic metastases formation in the lung. 1×10^6 murine 4T1 cells per mouse were diluted in 50 μl RPMI plus 50 μl Matrigel and injected into the 6th mammary fat pad of 10 female BALB/c mice. One week after the injection, the mice were either injected intraperitoneally with 20 μg of the murine v6 14mer dissolved in 100 μl PBS or with 20 μg of control peptide (rat v6 14mer) dissolved in 100 μl PBS. The injection was performed 3 times per week for two weeks. After 2 weeks the mice were sacrificed and the primary tumors and the lungs were extracted. A: Overall reduction of the tumor volume in the v6 peptide treated group. B: Immunofluorescent staining for the endothelial marker CD34 to monitor vascularization of the primary tumor. Graphic representation of the reduction of the total vessel area. C: The v6 peptides led to a reduction in macroscopic lung metastasis. The black arrows mark examples for metastases. The scale bar corresponds to a size of 1 cm. Statistical evaluation of the average number of lung metastases. Significance was calculated using Student's t test: p*<0.01; **p<0.005. Each group consisted of 5 animals.
The effect of the CD44v6 14mer was tested in a syngeneic mouse model by orthotopic injection of the murine mammary carcinoma cells 4T1. 4T1 cells were originally derived from a spontaneously arising BALB/c mammary tumor. When introduced orthotopically, 4T1 cells grow rapidly at the primary site and form metastases in the lung and the lymph nodes within a period of 3-6 weeks. The tumor growth and metastatic spreading of 4T1 cells in BALB/c mice very closely mimics human breast cancer stage IV.
The 4T1 cells were injected orthotopically into the 6th mammary fat pad. Two groups of 5 animals each with the implanted tumor cells were then used for the experiment. One group was treated with the v6 14mer peptide, one with a control (rat) peptide. The injection of the peptide was performed 3 times per week and planned for three to four weeks but had to be stopped after two weeks as the control group suffered from large tumors.

Met and ERK [4] = assay: HGF induced activation of Met and Erk in BSp73ASs6 cells (Western blot); assay type: cell-based, rat; settings: ASs6 cells, peptides with 2000 dalton PEG-chain, 150 nM 10 min before HGF 10 ng/ml (FIG. 10)
Protocol: as §1
Rat pancreatic cancer cells BSp73ASs6 (also designated Ass6) were incubated for 10 min at 37° C. with either ctrl-peptides (SEQ ID No.: 15), non-pegylated v6-peptides (SEQ ID No.: 11) and increasing concentrations of the pegylated peptides, namely PEG-rat control peptide and PEG-rat CD44v6 peptide, before induction with HGF (10 ng/ml; 5 min at 37° C.).
Activation of ERK and Met was determined by standard SDS and Western Blotting techniques using a phospho-Met and phospho-Erk specific antibody (phospho-Met clone D16 cell signaling, phospho-Erk p42/44 cell signaling)
ASs6 cells, serum starved for 24 h, were induced with HGF (10 ng/ml) at 37° C. for 5 min. Where indicated, the cells were treated with PEGylated or non-PEGylated peptides before induction at 37° C. for 10 min (150 nM). Cells were washed with phosphate-buffered saline (PBS) and lysed in boiling sodium dodecyl sulfate (SDS)-sample buffer containing 100 mM dithiothreitol (DTT). Subsequently, lysates were subjected to Western blot analysis using antibodies against phosphorylated Mek and Erk (Cell signaling). The Mek and Erk loading control were performed on the same blot, stripped (62.5 mM Tris pH 6.8, 2% SDS, 0.8% DTT) and probed with the Mek and Erk antibodies. Blots were stained using the enhanced chemiluminescence system (Thermo Fisher Scientific).

HT29 cells = assay: HGF induced scattering of HT29 cells; assay type: cell-based, human
Protocol: FIG. 17: The human CD44 v6 specific peptides block HGF induced cell scattering and invasion into matrigel. Scattering of HT29 cells was determined in 24-well plates. First, 4.5×10^4 cells were seeded at 37° C.; after 24 h the cells were serum starved for additional 24 h. the cells were either left untreated (control) or later treated with HGF (50 ng/ml) for 24 h. Where indicated the cells were treated with the v6 specific peptide (human v6 5mer, 10mer, 14mer) or control peptide prior to induction with HGF for 30 min. Pictures were made using phase contrast microscopy. Magnification 40×.
A scatter assay was performed additionally. HT29 colon cancer cells were grown in medium containing 10% FCS. One day after seeding, the cells were starved. On the third day, the cells were induced with HGF (10 ng/ml) and pre-incubated with either no peptide, ctrl-peptides (SEQ ID No.: 15), non-pegylated v6-peptides (SEQ ID No.: 11) or the pegylated peptides, namely PEG-rat control peptide and PEG-rat CD44v6 peptide.
Scattering of HT29 cells was determined in 24-well plates. First, 4×10^5 cells were seeded at 37° C.; the cells were either left untreated or 48 h later treated with HGF (50 ng/ml) for 24 h or with PEGylated or non-PEGylated peptides (100 ng/ml) prior to HGF induction for 30 min.

[5] = 20 μg i.p. three times per week for three weeks, start 7 days after implantation

| Substance | lung metastasis at day twenty-two (BSp73ASs6 cells [1]) | time of maximum of apoptosis (BSp73ASs6 cells [1]) | first detection of apoptotic cells (cleaved Caspase 3) in tumor areas of the lungs (BSp73ASs6 cells [1]; start three weeks after tumor cell injection) | metastasis (axillary lymph nodes, lungs) (BSp73ASs6 cells [2]) | outgrowth of primary tumors (BSp73ASs6 cells [2]) | metastasis and micro-metastasis in lung sections (PAS and H&E staining) (BSp73ASs6 cells [2]) | Phosphorylation of Met and ERK (Met and ERK [3]) | metastasis formation (liver) (L3.6pl cells; [5]) | outgrowth of the primary tumor in the pancreas (L3.6pl cells; [5]) | average number of metastases (4T1 cells; 5 animals) | macroscopic lung metastases per animal (4T1 cells; 5 animals per group) | HGF induced Met-phosphorylation and Erk signaling (Met and ERK [4]) | HGF induced scattering of HT29 cells (HT29 cells; PEGylated peptides 100 ng/ml prior to HGF 50 ng/ml (Example 5, FIG. 11)) | HGF induced clustering / scattering of HT29 cells (FIG. 11) (HT29 cells; HGF 10 ng/ml, peptide pre-incubation (Example 2)) | all experiments of the human orthotopic model repeated with 5mer peptides (L3.6pl cells; 20 μg i.p. three times per week for 21 days) |
| --- | --- | --- | --- | --- | --- | --- | --- | --- | --- | --- | --- | --- | --- | --- | --- |
| KEKWFENEWQGKNP [rat 14mer, rat CD44v6 14mer; control peptide in human and mouse models] | no metastasis could be detected anymore | eight days after the first injection | as early as three days after the first injection | completely inhibited metastasis | not influenced by either treatment | neither metastasis nor micro-metastasis could be detected | had no influence on receptor activation and signal transduction | neither any influence on metastasis formation | nor on growth of the primary tumor | 6 metastases per lung | all mice treated with the control peptide developed metastases | – | – | – | – |
| PEG-NAAAG [PEG-control peptide, pegylated control peptide, 3 essential aa replaced by alanines, reference compound] | – | – | – | – | – | – | – | – | – | – | – | showed no effect | not with PEGylated control peptides | – | – |
| NEWQG [rat 5mer, rat CD44v6 5mer peptide] | – | – | – | completely inhibited metastasis | not influenced by either treatment | neither metastasis nor micro-metastasis could be detected | had no influence on receptor activation and signal transduction | – | – | – | – | – | – | lead to dissociation and migration of cells away from these cell cluster | The same results as for the 14mer peptides were observed |
